According to patent EP0025288A1, “Derivatives of monic acid, processes for their preparation, compositions containing them and their preparation” (priority 1979, dated 1981):
Values after ≈ are worked out from the molar mass of the structure shown.

Columns and labels:
[1] = test system: M suipneumoniae J2206/183b; experiment: MIC, anti-mycoplasmal, Friis' broth microtiter method; type: cell-based; conditions: read-out: in vitro MIC, BROTH
M pneumoniae ATCC 15492 [2] = experiment: MIC, anti-mycoplasmal, serial dilution in Friis' agar; type: cell-based; conditions: read-out: in vitro MIC, AGAR
[3] = test system: Staph aureus B4 (pen resis); experiment: MIC, veterinary bacteria; type: cell-based; conditions: Staphylococcus aureus, veterinary bacteria (Table 2), read-out: MIC
M gallisepticum S6 = experiment: MIC, anti-mycoplasmal, serial dilution in Friis' agar; type: cell-based; conditions: read-out: in vitro MIC, AGAR
E coli NCTC 10418 = experiment: MIC, veterinary bacteria; type: cell-based; conditions: veterinary bacteria (Table 2), read-out: MIC
M pneumoniae 427a [4] = experiment: MIC, anti-mycoplasmal, serial dilution in Friis' agar; type: cell-based; conditions: read-out: in vitro MIC, AGAR
Strep agalactiae SPA1 = experiment: MIC, veterinary bacteria; type: cell-based; conditions: veterinary bacteria (Table 2), read-out: MIC
Past Haemolytica PA5 = experiment: MIC, veterinary bacteria; type: cell-based; conditions: veterinary bacteria (Table 2), read-out: MIC
M suipneumoniae Str 11 = experiment: MIC, anti-mycoplasmal, Friis' broth microtiter method; type: cell-based; conditions: read-out: in vitro MIC, BROTH
Past multocida PA1 = experiment: MIC, veterinary bacteria; type: cell-based; conditions: veterinary bacteria (Table 2), read-out: MIC
M dispar H225 = experiment: MIC, anti-mycoplasmal, Friis' broth microtiter method; type: cell-based; conditions: read-out: in vitro MIC, BROTH
[5] = test system: Corynebacterium pyogenes CY1; experiment: MIC, veterinary bacteria; type: cell-based; conditions: veterinary bacteria (Table 2), read-out: MIC
[6] = test system: M bovigenitalium ATCC 14173; experiment: MIC, anti-mycoplasmal, serial dilution in Friis' agar; type: cell-based; conditions: read-out: in vitro MIC, AGAR
M pulmonis JB [7] = experiment: as above; type: cell-based; conditions: read-out: in vitro MIC, AGAR
M alkalescens NCTC 10135 = experiment: as above; type: cell-based; conditions: read-out: in vitro MIC, AGAR
Staph aureus Oxford = experiment: MIC, veterinary bacteria; type: cell-based; conditions: Staphylococcus aureus, veterinary bacteria (Table 2), read-out: MIC
M dispar NCTC 10125 = experiment: MIC, anti-mycoplasmal, Friis' broth microtiter method; type: cell-based; conditions: read-out: in vitro MIC, BROTH
Bord bronchisptica BO9 = experiment: MIC, veterinary bacteria; type: cell-based; conditions: veterinary bacteria (Table 2), read-out: MIC
M fermentans MWKL4 [8] = experiment: MIC, anti-mycoplasmal, serial dilution in Friis' agar; type: cell-based; conditions: read-out: in vitro MIC, AGAR
Past multocida PA2 = experiment: MIC, veterinary bacteria; type: cell-based; conditions: veterinary bacteria (Table 2), read-out: MIC
M fermentans MWKL4 [9] = experiment: MIC, anti-mycoplasmal, Friis' broth microtiter method; type: cell-based; conditions: read-out: in vitro MIC, BROTH
S dublin S7 = experiment: MIC, veterinary bacteria; type: cell-based; conditions: veterinary bacteria (Table 2), read-out: MIC
M hyorhinis ATCC 23234 = experiment: MIC, anti-mycoplasmal, serial dilution in Friis' agar; type: cell-based; conditions: read-out: in vitro MIC, AGAR
M synoviae ATCC 25204 = experiment: as above; type: cell-based; conditions: read-out: in vitro MIC, AGAR
[10] = test system: Strep suis (group D) SPS11; experiment: MIC, veterinary bacteria; type: cell-based; conditions: veterinary bacteria (Table 2), read-out: MIC
M hyosynoviae ATCC 25591 = experiment: MIC, anti-mycoplasmal, serial dilution in Friis' agar; type: cell-based; conditions: read-out: in vitro MIC, AGAR
Strep uberis SPU1 = experiment: MIC, veterinary bacteria; type: cell-based; conditions: veterinary bacteria (Table 2), read-out: MIC
M pneumoniae ATCC 15492 [11] = experiment: MIC, anti-mycoplasmal, Friis' broth microtiter method; type: cell-based; conditions: read-out: in vitro MIC, BROTH
E coli E1 = experiment: MIC, veterinary bacteria; type: cell-based; conditions: veterinary bacteria (Table 2), read-out: MIC
[12] = test system: Staph aureus 152 (pen sens); experiment: MIC, veterinary bacteria; type: cell-based; conditions: Staphylococcus aureus, veterinary bacteria (Table 2), read-out: MIC
Strep dysgalaciae SPD1 = experiment: MIC, veterinary bacteria; type: cell-based; conditions: veterinary bacteria (Table 2), read-out: MIC
[13] = Serum binding by ultrafiltration; type: in vitro ADME, pig; conditions: pig, serum, compounds at 8 mcg/ml, microbiological assay (B. subtilis ATCC 6633), read-out: % bound to pig serum (converted)
Method: Serum binding was assessed by ultrafiltration of procine serum containing compounds at 8 mcg/ml, and through an Amicon CF50A ultrafiltration cone. Separation of ultrafiltrate was achieved by centrifugation.

[14] = test system: Erysipelothrix rhusiopathiae NCTC 8163; experiment: MIC, veterinary bacteria; type: cell-based; conditions: NCTC8163, veterinary bacteria (Table 2), read-out: MIC
Bord bronchiseptica BO8 = experiment: MIC, veterinary bacteria; type: cell-based; conditions: veterinary bacteria (Table 2), read-out: MIC
M pulmonis JB [15] = experiment: MIC, anti-mycoplasmal, Friis' broth microtiter method; type: cell-based; conditions: read-out: in vitro MIC, BROTH
S typhimurium S18 = experiment: MIC, veterinary bacteria; type: cell-based; conditions: veterinary bacteria (Table 2), read-out: MIC
M pneumoniae 427a [16] = experiment: MIC, anti-mycoplasmal, Friis' broth microtiter method; type: cell-based; conditions: read-out: in vitro MIC, BROTH
M arthritidis ATCC 14124 = experiment: MIC, anti-mycoplasmal, serial dilution in Friis' agar; type: cell-based; conditions: read-out: in vitro MIC, AGAR
M bovis NCTC 10131 = experiment: as above; type: cell-based; conditions: read-out: in vitro MIC, AGAR
M bovis ATCC 25025 = experiment: as above; type: cell-based; conditions: read-out: in vitro MIC, AGAR

SMILES | MIC [1] [µg/mL] | MIC (M pneumoniae ATCC 15492 [2]) [µg/mL] | MIC [3] [µg/mL] | MIC (M gallisepticum S6) [µg/mL] | MIC (E coli NCTC 10418) [µg/mL] | MIC (M pneumoniae 427a [4]) [µg/mL] | MIC (Strep agalactiae SPA1) [µg/mL] | MIC (Past Haemolytica PA5) [µg/mL] | MIC (M suipneumoniae Str 11) [µg/mL] | MIC (Past multocida PA1) [µg/mL] | MIC (M dispar H225) [µg/mL] | MIC [6] [µg/mL] | MIC (M pulmonis JB [7]) [µg/mL] | MIC (M alkalescens NCTC 10135) [µg/mL] | MIC (Staph aureus Oxford) [µg/mL] | MIC (M dispar NCTC 10125) [µg/mL] | MIC (Bord bronchisptica BO9) [µg/mL] | MIC (M fermentans MWKL4 [8]) [µg/mL] | MIC (Past multocida PA2) [µg/mL] | MIC (M fermentans MWKL4 [9]) [µg/mL] | further results
CC(=O)COC(=O)C=C(C)CC1OCC(CC2OC2C(C)C(C)O)C(O)C1O (centres unmarked) [Example 1, Acetvlmethvl Monate A] | 1.25 (≈ 3.12 µM) | > 10 | 2.5 (≈ 6.24 µM) | > 10 | > 80 | 10 (≈ 25 µM) | 5 (≈ 12.5 µM) | 5 (≈ 12.5 µM) | 0.625 (≈ 1.56 µM) | 0.625 (≈ 1.56 µM) | 0.156 (≈ 0.39 µM) | 0.078 (≈ 0.195 µM) | 0.156 (≈ 0.39 µM) | 0.039 (≈ 0.0974 µM) | 2.5 (≈ 6.24 µM) | 0.156 (≈ 0.39 µM) | 40 (≈ 99.9 µM) | 0.312 (≈ 0.779 µM) | 0.312 (≈ 0.779 µM) | 0.078 (≈ 0.195 µM) | MIC [5]: > 80 µg/mL; MIC (S dublin S7): > 80 µg/mL; MIC (M hyorhinis ATCC 23234): 2.5 µg/mL (≈ 6.24 µM); MIC (M synoviae ATCC 25204): < 0.02 µg/mL; MIC [10]: 40 µg/mL (≈ 99.9 µM); MIC (M hyosynoviae ATCC 25591): 1.25 µg/mL (≈ 3.12 µM); MIC (Strep uberis SPU1): 2.5 µg/mL (≈ 6.24 µM); MIC (M pneumoniae ATCC 15492 [11]): > 10 µg/mL; MIC (E coli E1): > 80 µg/mL; MIC [12]: 2.5 µg/mL (≈ 6.24 µM); MIC (Strep dysgalaciae SPD1): 5 µg/mL (≈ 12.5 µM); fraction unbound [13]: 0.772; MIC [14]: > 80 µg/mL; MIC (Bord bronchiseptica BO8): > 80 µg/mL; MIC (M pulmonis JB [15]): 0.156 µg/mL (≈ 0.39 µM); MIC (S typhimurium S18): > 80 µg/mL; MIC (M pneumoniae 427a [16]): > 10 µg/mL; MIC (M arthritidis ATCC 14124): > 10 µg/mL
CC(=O)CCCOC(=O)C=C(C)CC1OCC(CC2OC2C(C)C(C)O)C(O)C1O (centres unmarked) [Example 2, 3-Acetvlpropvl Monate A] | 0.312 (≈ 0.728 µM) | 0.312 (≈ 0.728 µM) | 1.25 (≈ 2.92 µM) | 2.5 (≈ 5.83 µM) | > 80 | 0.312 (≈ 0.728 µM) | 2.5 (≈ 5.83 µM) | 5 (≈ 11.7 µM) | 0.156 (≈ 0.364 µM) | 0.312 (≈ 0.728 µM) | ≤ 0.02 | ≤ 0.02 | ≤ 0.02 | < 0.02 | 1.25 (≈ 2.92 µM) | ≤ 0.02 | 5 (≈ 11.7 µM) | ≤ 0.02 | 0.039 (≈ 0.091 µM) | < 0.02 | MIC (M bovis NCTC 10131): < 0.02 µg/mL; MIC (M bovis ATCC 25025): < 0.02 µg/mL; MIC (S dublin S7): > 80 µg/mL; MIC (M hyorhinis ATCC 23234): 0.312 µg/mL (≈ 0.728 µM); MIC (M synoviae ATCC 25204): < 0.02 µg/mL; MIC [10]: 10 µg/mL (≈ 23.3 µM); MIC (M hyosynoviae ATCC 25591): 0.078 µg/mL (≈ 0.182 µM); MIC (Strep uberis SPU1): 0.312 µg/mL (≈ 0.728 µM); MIC (M pneumoniae ATCC 15492 [11]): 0.312 µg/mL (≈ 0.728 µM); MIC (E coli E1): > 80 µg/mL; MIC [12]: 1.25 µg/mL (≈ 2.92 µM); MIC (Strep dysgalaciae SPD1): 1.25 µg/mL (≈ 2.92 µM); fraction unbound [13]: 0.76; MIC [14]: 80 µg/mL (≈ 187 µM); MIC (Bord bronchiseptica BO8): 40 µg/mL (≈ 93.3 µM); MIC (M pulmonis JB [15]): < 0.02 µg/mL; MIC (S typhimurium S18): > 80 µg/mL; MIC (M pneumoniae 427a [16]): 0.625 µg/mL (≈ 1.46 µM); MIC (M arthritidis ATCC 14124): 2.5 µg/mL (≈ 5.83 µM)
